The target in one assay is Ret wt (Homo sapiens (Human), UniProt P07949). Briefly: HTRF kinase inhibition assay, Ret wt. It is filed as biochemical. As to conditions: HTRF method. From the text:
(§1) • 1. […] 1) • 18) Echo (Labcyte, 550) • 3.
(§2) [formula] • Ratiopositive control: average of CEP-32496 readings in all positive control wells • Rationegative control: average of DMSO readings in all negative control wells • Wherein, the chemical name of CEP-32496 is: N-[3-[(6,7-dimethoxy-4-quinazolinyl)oxy]phenyl]-N′-[5-(2,2,2-trifluoro-1,1-dimethylethyl)-3-isoxazolyl]urea. • 4.3 Calculation of the IC50 and Drawing of the inhibition curve of the compound: • The IC50 (half inhibitory concentration) of the compound was obtained using the following non-linear fitting formula: Data analysis was performed using Graphpad 6.0 software. Y=Bottom+(Top−Bottom)/(1+10^((Log IC50−X)*Hill Slope)) • X: compound concentration log value Y: inhibition, % • 5.

For a further assay, the target named is Ret V804M (Homo sapiens (Human), UniProt P07949, V804M). Briefly: HTRF kinase inhibition assay, Ret V804M. It is filed as biochemical. The conditions noted are these: HTRF method.
Text: as §1, §2
(In TR-FRET formats the signal depends on donor and acceptor labels being close together.)

The values below come from patent US12209085B2, “RET inhibitors, pharmaceutical compositions and uses thereof” (SUNSHINE LAKE PHARMA CO., LTD., priority 2018, dated 2025).

Sequence of Ret wt (P07949 29-1114): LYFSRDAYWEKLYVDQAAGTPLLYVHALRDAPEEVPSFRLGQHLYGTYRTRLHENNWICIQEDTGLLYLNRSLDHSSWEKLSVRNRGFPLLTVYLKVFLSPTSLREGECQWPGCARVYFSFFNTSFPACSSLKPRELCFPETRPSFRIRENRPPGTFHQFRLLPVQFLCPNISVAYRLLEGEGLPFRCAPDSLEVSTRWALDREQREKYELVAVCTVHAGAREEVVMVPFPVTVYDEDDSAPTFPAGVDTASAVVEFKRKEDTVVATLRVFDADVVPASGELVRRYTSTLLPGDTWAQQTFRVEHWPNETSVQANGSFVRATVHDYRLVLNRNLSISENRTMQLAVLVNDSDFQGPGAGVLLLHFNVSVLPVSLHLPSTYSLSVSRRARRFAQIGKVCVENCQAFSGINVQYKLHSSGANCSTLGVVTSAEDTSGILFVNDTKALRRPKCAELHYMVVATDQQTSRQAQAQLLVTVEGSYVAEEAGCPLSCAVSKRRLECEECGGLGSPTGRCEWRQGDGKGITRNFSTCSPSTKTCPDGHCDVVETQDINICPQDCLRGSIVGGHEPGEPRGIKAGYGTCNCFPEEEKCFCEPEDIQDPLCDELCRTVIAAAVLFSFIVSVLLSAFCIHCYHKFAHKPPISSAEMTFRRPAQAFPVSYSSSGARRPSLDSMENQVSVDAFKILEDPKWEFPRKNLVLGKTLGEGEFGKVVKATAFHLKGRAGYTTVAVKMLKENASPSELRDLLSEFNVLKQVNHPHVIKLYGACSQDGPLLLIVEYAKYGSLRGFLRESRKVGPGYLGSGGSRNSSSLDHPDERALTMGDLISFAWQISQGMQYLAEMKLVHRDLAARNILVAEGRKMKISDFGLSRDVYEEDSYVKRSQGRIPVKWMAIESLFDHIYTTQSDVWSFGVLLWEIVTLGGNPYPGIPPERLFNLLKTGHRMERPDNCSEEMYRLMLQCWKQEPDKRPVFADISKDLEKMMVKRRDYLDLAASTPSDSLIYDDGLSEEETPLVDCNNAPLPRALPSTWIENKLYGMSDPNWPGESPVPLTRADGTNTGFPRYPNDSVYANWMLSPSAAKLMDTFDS
Sequence of Ret V804M (P07949 29-1114 V804M): as the sequence (P07949 29-1114) above, with V776M counted along it

With `C#Cc1ccc(OC2CN(c3ccc(-c4cc(-c5cnn(C)c5)cn5ncc(C#N)c45)cn3)C2)cn1` [Example 287, 4-(6-(3-((6-ethynylpyridin-3-yl)oxy)azetidin-1-yl)pyridin-3-yl)-6-(1-methyl-1H-pyrazol-4-yl) pyrazolo[1,5-a]pyridine-3-carbonitrile], the values for the IC50 on Ret wt and against Ret V804M were 0.13 nM and 0.2 nM, respectively.

Regarding `Cn1cc(-c2cc(-c3ccc(N4CC5CC(C4)N5CC#Cc4ccccn4)nc3)c3c(C#N)cnn3c2)cn1` [Example 244], the IC50 was found to be 0.15 nM against Ret wt and 0.27 nM on Ret V804M.

Regarding `Cn1cc(-c2cc(-c3ccc(N4CCN(CC#Cc5cccnc5)CC4)nc3)c3c(C#N)cnn3c2)cn1` [Example 248, 6-(1-methylpyrazol-4-yl)-4-[6-[4-[3-(3-pyridyl)prop-2-ynyl]piperazin-1-yl]-3-pyridyl]pyrazolo[1,5-a]pyridine-3-carbonitrile], the IC50 on Ret wt came out at 0.58 nM; at Ret V804M, 5.76 nM.

As to `COc1cc(C#CCN2CCN(c3ccc(-c4cc(-c5cnn(C)c5)cn5ncc(C#N)c45)cn3)CC2)ccn1` [Example 243, 4-(6-(4-(3-(2-methoxypyridin-4-yl)prop-2-yn-1-yl)piperazin-1-yl)pyridin-3-yl)-6-(1-methyl-1H-pyrazol-4-yl)pyrazolo[1,5-a]pyridine-3-carbonitrile], the IC50 amounted to 3.51 nM on Ret wt and 37.8 nM against Ret V804M.

On to `C#CC#CCN1CCN(c2ccc(-c3cc(-c4cnn(C)c4)cn4ncc(C#N)c34)cn2)CC1` [Example 275, 6-(1-methyl-1H-pyrazol-4-yl)-4-(6-(4-(penta-2,4-diyn-1-yl)piperazin-1-yl)pyridine-3-yl)pyrazolo[1,5-a]pyridine-3-carbonitrile], for which the IC50 stood at 0.58 nM on Ret wt and 8.22 nM against Ret V804M.

Regarding `C#Cc1ccc(OC2CN(c3ccc(-c4cc(-c5cnn(C6CC6)c5)cn5ncc(C#N)c45)cn3)C2)cn1` [Example 280, 6-(1-cyclopropyl-1H-pyrazol-4-yl)-4-(6-(3-((6-ethynylpyridin-3-yl)oxy)azetidin-1-yl)pyridin-3-yl)pyrazolo[1,5-a]pyridine-3-carbonitrile], the results for the 50% inhibitory concentration (IC50) on Ret wt and against Ret V804M were 0.43 nM and 0.92 nM, respectively.

Regarding `Cn1cc(-c2cc(-c3ccc(N4CCN(CC#Cc5ccc(F)nc5)CC4)nc3)c3c(C#N)cnn3c2)cn1` [Example 261, 4-[6-[4-[3-(6-fluoro-3-pyridyl)prop-2-ynyl]piperazin-1-yl]-3-pyridyl]-6-(1-methylpyrazol-4-yl)pyrazolo[1,5-a]pyridine-3-carbonitrile], the IC50 worked out at 3.1 nM against Ret wt and 5.1 nM against Ret V804M.

Regarding `Cn1cc(-c2cc(-c3ccc(N4CC5CC(C4)N5CC#Cc4ncccc4F)nc3)c3c(C#N)cnn3c2)cn1` [Example 258, 4-(6-(6-(3-(3-fluoropyridin-2-yl)prop-2-yn-1-yl)-3,6-diazabicyclo[3.1.1]heptane-3-yl)pyridin-3-yl)-6-(1-methyl-1H-pyrazol-4-yl)pyrazoline[1,5-a]pyridin-3-carbonitrile], the IC50 on Ret wt stood at 0.15 nM; against Ret V804M it was 0.21 nM.

Consider `Cn1cc(-c2cc(-c3ccc(N4CC5CC(C4)N5CC#Cc4ccncc4)nc3)c3c(C#N)cnn3c2)cn1` [Example 245, 6-(1-methyl-1H-pyrazol-4-yl)-4-(6-(6-(3-(pyridin-4-yl)propan-2-yn-1-yl)-3,6-diazabicyclo[3.1.1]heptan-3-yl)pyridin-3-yl)pyrazole[1,5-a]pyridine-3-carbonitrile], for which the IC50 at Ret wt is 0.65 nM; against Ret V804M it was 10.7 nM.

For the molecule `Cn1cc(-c2cc(-c3ccc(N4CC5CC(C4)N5CC#Cc4cccnc4)nc3)c3c(C#N)cnn3c2)cn1` [Example 249, 6-(1-methylpyrazol-4-yl)-4-[6-[6-[3-(3-pyridyl)prop-2-ynyl]-3,6-diazabicyclo[3.1.1]heptan-3-yl]-3-pyridyl]pyrazolo[1,5-a]pyridine-3-carbonitrile], the concentration for half-maximal inhibition (IC50) on Ret wt came to 0.39 nM; against Ret V804M, 1.77 nM.

In general, IC50 refers to the point on the concentration scale where inhibition reaches its midpoint. High values mean a need for much substance, low ones inhibition by little substance.
